Assay [1] concerns Influenza A virus. Description: Antiviral activity against Influenza A virus (A/Texas/36/1991(H1N1)) infected in BALB/c mouse assessed as median death time at 500 mg/kg, po administered via gavage as three dosed at 8, 32 and 56 hrs post infection (reference value: 8 days). The assay is classed as functional.
Assay [2] has as its system dengue virus type 2. The assay is described as follows: Antiviral activity against Dengue virus 2 S221 infected in DENV antibody dependent enhancement AG129 mouse model assessed as reduction in TNF-lapha level at 750 mg/kg, po administered via gavage as two doses at 36 hrs and 52 hrs post infection measured at 60 hrs post-infection by electrochemiluminescence based method. The assay is classed as functional, organism-based.

For assay [3], the system named is Influenza A virus. Description: Antiviral activity against Influenza A virus (A/Texas/36/1991(H1N1)) infected in BALB/c mouse assessed as animal survival at 750 mg/kg, po administered via gavage as two doses at 8 and 32 hrs post infection (reference value: 0%). The assay is classed as functional.
For assay [4], the system named is Influenza A virus. Description: Antiviral activity against Influenza A virus (A/Texas/36/1991(H1N1)) infected in BALB/c mouse assessed as median death time at 250 mg/kg, po administered via gavage as two doses at 8 hrs and 32 hrs post infection (reference value: 9 days). The assay is classed as functional.
Assay [5] relates to Mus musculus. The assay is described as follows: In vivo inhibition of ERGlu1 in BALB/c mouse assessed as increase in tri-glucosylated FOS level in spleen at 750 mg/kg, po administered via gavage as single dose and measured after 16 hrs by NP-HPLC analysis. Type of assay: functional, organism-based.
In assay [6] the test system is Influenza A virus. The assay is described as follows: Antiviral activity against Influenza A virus (A/Texas/36/1991(H1N1)) infected in BALB/c mouse assessed as animal survival at 250 mg/kg, po administered via gavage as three doses at 8, 32 and 56 hrs post infection (reference value: 0%). The assay is classed as functional.
Assay [7] concerns Influenza A virus. The assay is described as follows: Antiviral activity against Influenza A virus (A/Texas/36/1991(H1N1)) infected in BALB/c mouse assessed as median death time at 250 mg/kg, po administered via gavage as single dose at 8 hrs post infection. Type of assay: functional.
In assay [8] the test system is Mus musculus. Description: In vivo inhibition of ERGlu1 in BALB/c mouse assessed as increase in tri-glucosylated FOS level in spleen at >250 mg/kg, po administered via gavage as single dose at 8 hrs post-infection and measured at 8 hrs post dose by NP-HPLC analysis. Type of assay: functional, organism-based.
Assay [9] deals with Influenza A virus. Description: Antiviral activity against Influenza A virus (A/Texas/36/1991(H1N1)) infected in BALB/c mouse assessed as median death time at 750 mg/kg, po administered via gavage as single dose at 24 hrs post infection (reference value: 8.5 days). The assay is classed as functional.
Assay [10] concerns dengue virus type 2. Description: Antiviral activity against Dengue virus 2 S221 infected in DENV antibody dependent enhancement AG129 mouse model assessed as reduction in IL-10 level at 750 mg/kg, po administered via gavage as two doses at 36 hrs and 52 hrs post infection measured at 60 hrs post-infection by electrochemiluminescence based method. The assay is classed as functional, organism-based.

In assay [11] the test system is dengue virus type 2. The assay is described as follows: Antiviral activity against Dengue virus 2 S221 infected in DENV antibody dependent enhancement AG129 mouse model assessed as reduction in viremia by measuring foci of BHK21 cells containing DENV E at 750 mg/kg, po administered via gavage as two doses at 36 hrs and 52 hrs post infection measured after titration of compound treated infected animal serum with BHK21 cells by TrueBlue staining based focus forming assay. Type of assay: functional, organism-based.

Assay [12] has as its system dengue virus type 2. The assay is described as follows: Antiviral activity against Dengue virus 2 S221 infected in DENV antibody dependent enhancement AG129 mouse model assessed as reduction in KC-GRO level at 750 mg/kg, po administered via gavage as two doses at 36 hrs and 52 hrs post infection measured at 60 hrs post-infection by electrochemiluminescence based method. The assay is classed as functional, organism-based.

Assay [13] deals with dengue virus type 2. Description: Antiviral activity against Dengue virus 2 S221 infected in DENV antibody dependent enhancement AG129 mouse model assessed as reduction in IL-12/IL-23p40 level at 750 mg/kg, po administered via gavage as two doses at 36 hrs and 52 hrs post infection measured at 60 hrs post-infection by electrochemiluminescence based method. The assay is classed as functional, organism-based.

The test system of assay [14] is dengue virus type 2. Description: Antiviral activity against Dengue virus 2 S221 infected in DENV antibody dependent enhancement AG129 mouse model assessed as reduction in IL-10 level at 750 mg/kg, po administered via gavage as single dose at 36 hrs post infection measured at 72 hrs post-infection by electrochemiluminescence based method. Type of assay: functional, organism-based.

The source made the active and inactive calls. The rule behind the calls is not given here.

On to `COCCCCCCCCCN1C[C@H](O)[C@@H](O)[C@H](O)[C@H]1CO.Cl`, for which the Time in assay [1] was over 14 days; in assay [4], over 14 days; in [7], 8 days; in [9] it was 10 days. Further, the result in assay [2], in assay [10], in assay [11], in assay [12], in assay [13] and in [14] was Active. The survival at 750 mg/kg in [3] worked out at 100%. In addition, the inhibition result in [5] and in assay [8] was “Active” each time. In addition, the survival at 250 mg/kg in assay [6] worked out at 0%.

The values above are taken from ChEMBL document CHEMBL4402592, “Targeting Endoplasmic Reticulum α-Glucosidase I with a Single-Dose Iminosugar Treatment Protects against Lethal Influenza and Dengue Virus Infections” (J Med Chem, 2020).
